Laboratory results published in publication PMC4901301 (Scientific Reports, 2016).
In brackets after ≈: the same amount, converted by molar mass. Like-named read-outs stand apart in the source and are kept apart here.

Columns and labels:
Type in all cases: cell-based, Mycobacterium tuberculosis
Mtb MT 182 = test: Resazurin (Alamar Blue) drug susceptibility testing, MT 182
Mtb TC 12561 = test: Resazurin (Alamar Blue) drug susceptibility testing, TC 12561
Mtb TH 12768 = test: Resazurin (Alamar Blue) drug susceptibility testing, TH 12768
[1] = tested on: Mtb H37Rv thyX Tet-OFF conditional knockdown mutant

Structure (SMILES)	MIC (Mtb MT 182; read-out: MIC) [µM]	MIC (Mtb TC 12561; read-out: MIC) [µM]	MIC (Mtb TH 12768; read-out: MIC) [µM]	other results
O=C1C(O)=C(Cc2ccc(-c3ccc(Cl)cc3)cc2)C(=O)c2ccccc21 [Compound 007B]	83.4 (≈ 31.3 µg/mL)	83.4 (≈ 31.3 µg/mL)	41.7 (≈ 15.6 µg/mL)	–
O=C1C(O)=C(Cc2ccc(OC(F)(F)F)cc2)C(=O)c2ccccc21 [Compound 007C]	44.9 (≈ 15.6 µg/mL)	44.9 (≈ 15.6 µg/mL)	44.9 (≈ 15.6 µg/mL)	–
CC(C)Oc1ccc(CC2=C(O)C(=O)c3ccccc3C2=O)cc1 [Compound 007D]	96.9 (≈ 31.2 µg/mL)	96.9 (≈ 31.2 µg/mL)	96.9 (≈ 31.2 µg/mL)	–
O=C1C(O)=C(Cc2ccc(C(F)(F)F)cc2)C(=O)c2ccccc21 [Compound 007F]	94.1 (≈ 31.3 µg/mL)	47.0 (≈ 15.6 µg/mL)	94.1 (≈ 31.3 µg/mL)	–
O=C1C(O)=C(Cc2ccc(Oc3ccccc3)cc2)C(=O)c2ccccc21 [Compound 007G]	87.8 (≈ 31.3 µg/mL)	87.8 (≈ 31.3 µg/mL)	175.5 (≈ 62.5 µg/mL)	–
O=C1C(O)=C(Cc2ccc(Cl)cc2)C(=O)c2ccccc21 [Compound 010A]	104.6 (≈ 31.2 µg/mL)	52.3 (≈ 15.6 µg/mL)	104.6 (≈ 31.2 µg/mL)	–
O=C1C(O)=C(Cc2cc(F)cc(F)c2)C(=O)c2ccccc21 [Compound 010B]	104.1 (≈ 31.3 µg/mL)	104.1 (≈ 31.3 µg/mL)	52.1 (≈ 15.6 µg/mL)	–
O=C1C(O)=C(Cc2ccco2)C(=O)c2ccccc21 [Compound 010C]	176.5 (≈ 44.9 µg/mL)	176.5 (≈ 44.9 µg/mL)	176.5 (≈ 44.9 µg/mL)	–
O=C1C(O)=C(Cc2cccs2)C(=O)c2ccccc21 [Compound 010D]	462.4 (≈ 125 µg/mL)	57.8 (≈ 15.6 µg/mL)	231.2 (≈ 62.5 µg/mL)	–
O=C1C(O)=C(Cc2ccc(F)c(C(F)(F)F)c2)C(=O)c2ccccc21 [Compound 010E]	22.3 (≈ 7.81 µg/mL)	22.3 (≈ 7.81 µg/mL)	22.3 (≈ 7.81 µg/mL)	–
O=C1C(O)=C(Cc2ccc(F)c(Cl)c2)C(=O)c2ccccc21 [Compound 010F]	98.7 (≈ 31.3 µg/mL)	49.3 (≈ 15.6 µg/mL)	197.3 (≈ 62.5 µg/mL)	–
COc1cc(CC2=C(O)C(=O)c3ccccc3C2=O)ccc1O [Compound 010H]	100.7 (≈ 31.2 µg/mL)	201.4 (≈ 62.5 µg/mL)	201.4 (≈ 62.5 µg/mL)	–
CCCCC1=C(O)C(=O)c2ccccc2C1=O [Compound 010I]	135.7 (≈ 31.2 µg/mL)	271.4 (≈ 62.5 µg/mL)	135.7 (≈ 31.2 µg/mL)	–
COc1ccc(CC2=C(O)C(=O)c3ccccc3C2=O)cc1OC [Compound 010K]	385.4 (≈ 125 µg/mL)	192.7 (≈ 62.5 µg/mL)	192.7 (≈ 62.5 µg/mL)	–
CCOC(=O)C1=C(c2ccc(C)cc2)C(=O)c2ccccc2C1=O [Compound B6, ethyl 3-(4-methylphenyl)-1,4-dioxonaphtalene-2-carboxylate]	–	–	–	MIC90 shift (increase in potency) upon ThyX depletion [1]: no shift
CS(=O)(=O)N1CCN(C2=C(Cl)C(=O)c3ccccc3C2=O)CC1 [Compound E1, 2-chloro-3-(4-methanesulfonylpiperazin-1-yl)-1,4-dihydronaphthalene-1,4-dione]	–	–	–	MIC90 shift (increase in potency) upon ThyX depletion [1]: ≥ 4 fold
NNC(=O)c1ccncc1 [INH, isoniazid, reference compound]	–	–	–	MIC (Mtb MT 182; Mycobacterium tuberculosis, MT182, read-out: MIC): < 0.91 µM; MIC (Mtb TC 12561; Mycobacterium tuberculosis, TC12561, read-out: MIC): 14.6 µM (≈ 2 µg/mL); MIC (Mtb TH 12768; Mycobacterium tuberculosis, TH12768, read-out: MIC): 3.64 µM (≈ 0.499 µg/mL)
COC1=C(OC)C(=O)C(CCCCCCCCCCO)=C(C)C1=O [Idebenone, idebenone, reference compound]	–	–	–	Growth inhibition [1]: ~ 90%
CO[C@H]1/C=C/O[C@@]2(C)Oc3c(C)c(O)c4c(O)c(c(/C=N/N5CCN(C)CC5)c(O)c4c3C2=O)NC(=O)/C(C)=C\C=C\[C@H](C)[C@H](O)[C@@H](C)[C@@H](O)[C@@H](C)[C@H](OC(C)=O)[C@@H]1C [RMP, rifampicin, reference compound]	–	–	–	MIC (Mtb MT 182; Mycobacterium tuberculosis, MT182): 1.21 µM (≈ 0.996 µg/mL); MIC (Mtb TC 12561; Mycobacterium tuberculosis, TC12561): 4.86 µM (≈ 4 µg/mL); MIC (Mtb TH 12768; Mycobacterium tuberculosis, TH12768): < 0.3 µM
